Consider 30 compounds from patent US20260174721A1, “AGENT FOR RESTORING METAL HOMEOSTASIS” (Oxford Antibiotic Group GmbH, priority 2022, published 2026).

Read-outs that look alike come from different tables or passages of the source.

The test system of assay [1] is transgenic C. elegans strain CL2659. In words: β-amyloid test system: delay of paralysis in transgenic C. elegans strain CL2659 (Alzheimer testing). Particulars: CL2659 stage L3 larvae, 48 hours, tested at 1 mg/ml, 100 μg/ml, 10 μg/ml, — = no effect even at 1 mg/ml; for minimal effective concentration: Caenorhabditis elegans, read-out: Alzheimer: concentration range in which a delay in paralysis was observed. It counts as in vivo, Caenorhabditis elegans. On the procedure: For this purpose, stage L3 worm larvae were used at a density of 10-20 worms per well. The expression of β-amyloid in the muscle cells was induced by increasing the temperature, and the associated paralysis was recorded at regular intervals until the end of the test after 48 hours.
(§1) For this purpose, the above substances were tested at concentrations of 1 mg/ml, 100 μg/ml, and 10 μg/ml in comparison with quercetin as a […] control.

Assay [2] relates to transgenic C. elegans strain NL5901. As to the kind of experiment: α-synuclein test system: reduction of α-synuclein-GFP expression in transgenic C. elegans strain NL5901 (Parkinson testing). It is filed as in vivo, Caenorhabditis elegans. Particulars: NL5901, GFP readout 24 to 48 hours, tested at 1 mg/ml, 100 μg/ml, 10 μg/ml, — = no effect even at 1 mg/ml; for minimal effective concentration: Caenorhabditis elegans, read-out: Parkinson: concentration range in which a reduction in α-synuclein expression was detectable. As for the experimental part: (§2) The same substances as above were tested in a 96-well procedure in the initially mentioned screening assay using the nematode Caenorhabditis elegans (Pretsch et al., see above) in a standardized α-synuclein test system using the transgenic C. elegans strain NL5901 for their potential suitability as an agent for treating Parkinson's disease. This worm strain expresses human α-synuclein bound to green fluorescent protein (GFP) in all muscle cells. GFP labeling allows a direct detection of expressed protein levels using a multiplate reader for 24 to 48 hours.
(§3) For this purpose, the substances were again tested at concentrations of 1 mg/ml, 100 μg/ml, and 10 μg/ml, but this time in comparison to the initially mentioned Parkinson therapeutic agent levodopa as a control.

Another assay has as its system Caenorhabditis elegans. In words: C. elegans nematode assay, overall rating over the Alzheimer and Parkinson tests. It counts as in vivo. Particulars: for minimal effective concentration: Caenorhabditis elegans, read-out: Score. On the procedure:
The substances (1) to (41) and (101) to (108), prepared in the above synthesis examples or purchased, were tested for their potential suitability as an agent for treating Alzheimer's disease in a 96-well procedure in the initially mentioned screening assay using the nematode Caenorhabditis elegans (Pretsch et al., see above) in a standardized β-amyloid test system using the transgenic C. elegans strain CL2659. For this purpose, stage L3 worm larvae were used at a density of 10-20 worms per well. The expression of β-amyloid in the muscle cells was induced by increasing the temperature, and the associated paralysis was recorded at regular intervals until the end of the test after 48 hours.
as §1, §2, §3

[3] abbreviates: rating from the effective concentration in both tests.

For `O=C(O)CC(=O)O` [(1), malonic acid], the minimal effective concentration (in assay [1]; in assay [2]; in the assay on Caenorhabditis elegans (setting [3])) was greater than 100 µg/mL in each case. Further, in the assay with Caenorhabditis elegans (both tests), the “concentration from which the compound was effective” value is greater than 100 µg/mL. With `NC(=O)CC(N)=O` [(2), malonic acid diamide], the minimal effective concentration in assay [1] was greater than 10 µg/mL; in assay [2], greater than 10 µg/mL; in the assay with Caenorhabditis elegans (setting [3]) it was 10 to 100 µg/mL.

As to `O=C([O-])CC(=O)[O-].[Na+].[Na+]` [(3), disodium malonate], in assay [1], the “Alzheimer: concentration range in which a delay in paralysis was observed” value is greater than 10 µg/mL. Besides, the “Parkinson: concentration range in which a reduction in α-synuclein expression was detectable” value in assay [2] was greater than 10 µg/mL. In addition, the Score entry in the assay with Caenorhabditis elegans (setting [3]) is “++ (a compound that is already effective at a concentration >10 μg/ml and therefore rated “++”)”. For the compound `COC(=O)CC(=O)OC` [(4), malonic acid dimethyl ester], the minimal effective concentration in assay [1] is greater than 10 µg/mL; in assay [2] it was greater than 10 µg/mL; in the assay on Caenorhabditis elegans (setting [3]) it was 10 to 100 µg/mL. As for `COC(=O)CC(=O)[O-].[K+]` [(5), malonic acid methyl ester potassium salt], the minimal effective concentration in the assay on Caenorhabditis elegans was 10 to 100 µg/mL. Turning to `COC(=O)CC(N)=O` [(6), malonic acid methyl ester amide], in assay [1], the “Alzheimer: concentration range in which a delay in paralysis was observed” value is greater than 100 µg/mL. Besides, in assay [2], the “Parkinson: concentration range in which a reduction in α-synuclein expression was detectable” value was greater than 100 µg/mL. Moreover, the Score entry with Caenorhabditis elegans (setting [3]) is “+ (a compound that is only effective above 100 μg/ml and therefore rated “+”)”. Consider `NCCCNC(=O)CC(=O)O` [(7), N-(3-aminopropyl)malonic acid amide], for which the minimal effective concentration (in assay [1]; in assay [2]; in the assay on Caenorhabditis elegans (setting [3])) was greater than 100 µg/mL in each case. For `CCOC(=O)CC(=O)OC12CC3CC(CC(C3)C1)C2` [(9), malonic acid adamantan-1-yl ethyl ester], the minimal effective concentration was greater than 10 µg/mL in assay [1], greater than 10 µg/mL in assay [2] and 10 to 100 µg/mL in the assay with Caenorhabditis elegans (setting [3]). Regarding `O=C(O)CC(=O)OC12CC3CC(CC(C3)C1)C2` [(10), malonic acid adamantan-1-yl ester N-(3-aminopropyl)amide], the results for the minimal effective concentration (in assay [1]; in assay [2]; in the assay on Caenorhabditis elegans (setting [3])) were greater than 10 µg/mL, greater than 10 µg/mL and 10 to 100 µg/mL, respectively. For the compound `CN(CCCN)C(=O)CC(=O)OC12CC3CC(CC(C3)C1)C2` [(11), malonic acid adamantan-1-yl ester N-(3-aminopropyl)-N-methylamide], the minimal effective concentration in assay [1] was greater than 10 µg/mL; in assay [2] it was greater than 10 µg/mL; in the assay with Caenorhabditis elegans (setting [3]), 10 to 100 µg/mL.

For the compound `O=C(CC(=O)N1CCNCC1)OC12CC3CC(CC(C3)C1)C2` [(12), malonic acid adamantan-1-yl ester piperazine amide], the minimal effective concentration in the assay on Caenorhabditis elegans lay within 10 to 100 µg/mL. For `NCCCC(=O)N1CCN(C(=O)CC(=O)OC23CC4CC(CC(C4)C2)C3)CC1` [(13), malonic acid adamantan-1-yl ester 4-(4-aminobutyryl)piperazine amide], the minimal effective concentration in assay [1] is greater than 10 µg/mL; in assay [2], greater than 10 µg/mL; in the assay with Caenorhabditis elegans (setting [3]) it was 10 to 100 µg/mL. Consider `NCCCNC(=O)CC(=O)N1CCOCC1` [(22), N-(3-aminopropyl)-N′-morpholine malonic acid diamide], for which the minimal effective concentration in the assay on Caenorhabditis elegans was in the range of 10 to 100 µg/mL. On to `NCCCNC(=O)CC(=O)N1CCCCC1` [(23), N-(3-aminopropyl)-N′-piperidine malonic acid diamide], for which the minimal effective concentration in the assay on Caenorhabditis elegans lay within 10 to 100 µg/mL.

On to `O=C(CC(=O)N1CCN(Cc2cccc(C(F)(F)F)c2)CC1)OC12CC3CC(CC(C3)C1)C2` [(29), malonic acid adamantan-1-yl ester 4-(3-trifluoromethylbenzyl)piperazine amide], for which, in the assay with Caenorhabditis elegans, the minimal effective concentration fell in the range of 10 to 100 µg/mL. Same read-out and setting: next, `O=C(CC(=O)N1CCN(Cc2cccc(F)c2)CC1)OC12CC3CC(CC(C3)C1)C2` [(30), malonic acid adamantan-1-yl ester 4-(3-fluorobenzyl)piperazine amide]: 10 to 100 µg/mL; `COc1ccccc1N1CCN(C(=O)CC(=O)OC23CC4CC(CC(C4)C2)C3)CC1` [(31), malonic acid adamantan-1-yl ester 4-(2-methoxyphenyl)piperazine amide]: 10 to 100 µg/mL. On to `CC12CC3CC(C)(C1)CC(NC(=O)CC(=O)N1CCNCC1)(C3)C2` [(35), N-(3,5-dimethyladamantan-1-yl)-N′-piperazine malonic acid diamide], for which the minimal effective concentration in the assay on Caenorhabditis elegans lay in the range of 10 to 100 µg/mL.

As to `CC12CC3CC(C)(C1)CC(NC(=O)CC(=O)N1CCN(Cc4cccc(C(F)(F)F)c4)CC1)(C3)C2` [(36), N-(3,5-dimethyladamantan-1-yl)-N′-4-(3-trifluoromethylbenzyl)piperazine malonic acid diamide], in the assay on Caenorhabditis elegans, the minimal effective concentration was in the range of 10 to 100 µg/mL.

Take `CC12CC3CC(C)(C1)CC(NC(=O)CC(=O)N1CCN(Cc4cccc(F)c4)CC1)(C3)C2` [(37), N-(3,5-dimethyladamantan-1-yl)-N′-4-(3-fluorobenzyl)piperazine malonic acid diamide]: the minimal effective concentration with Caenorhabditis elegans fell in the range of 10 to 100 µg/mL. Take `COc1ccc(N2CCN(C(=O)CC(=O)NC34CC5CC(C)(CC(C)(C5)C3)C4)CC2)cc1` [(39), N-(3,5-dimethyladamantan-1-yl)-N′-4-(4-methoxyphenyl)piperazine malonic acid diamide]: the minimal effective concentration in the assay on Caenorhabditis elegans fell in the range of 10 to 100 µg/mL.

For the compound `COc1ccc(N2CCN(C(=O)CC(=O)NC34CC5CC(C)(CC(C)(C5)C3)C4)CC2)c(OC)c1` [(40), N-(3,5-dimethyladamantan-1-yl)-N′-4-(2,4-dimethoxyphenyl)piperazine malonic acid diamide], in the assay with Caenorhabditis elegans, the minimal effective concentration fell in the range of 10 to 100 µg/mL. As for `CC(C)(C(=O)O)C(=O)O` [(101), Dimethyl malonic acid, reference compound], the “efficacy in the C. elegans assay” value in the assay on Caenorhabditis elegans (both tests) is “neither dimethyl malonic acid (101) nor dimethyl malonic acid dimethyl ester (102) proved to be effective”. The Score entry in the assay on Caenorhabditis elegans (setting [3]) was “−”. Taken in the same sequence, the figures for `COC(=O)C(C)C(=O)OC` [(102), Methyl malonic acid dimethyl ester, reference compound] were “neither dimethyl malonic acid (101) nor dimethyl malonic acid dimethyl ester (102) proved to be effective” and “−”.

Regarding `NCCCNC(=O)C12CC3CC(CC(C3)C1)C2` [(103), 1-Adamantane carboxylic acid-N-(3-aminopropyl)amide, reference compound], in the assay on Caenorhabditis elegans (setting [3]), the Score result is recorded as “−”.

Turning to `CC(C)(C)OC(=O)NCCCN` [(104), 3-Aminopropyl carbamic acid tert-butyl ester, reference compound], the Score entry in the assay on Caenorhabditis elegans (setting [3]) is “−”.

In the case of `CNCCCNC(=O)OC(C)(C)C` [(105), 3-(Methylamino)propyl carbamic acid tert-butyl ester, reference compound], the Score entry in the assay on Caenorhabditis elegans (setting [3]) is on record as “−”. The same measure, in the same setting: next, `OC12CC3CC(CC(C3)C1)C2` [(106), 1-Adamantanol, reference compound]: “−”.

For `NC12CC3CC(CC(C3)C1)C2` [(107), 1-Adamantanamine, reference compound], the Score result in the assay with Caenorhabditis elegans (setting [3]) is listed as “−”. With `NCCCNC(=O)CC(=O)N1CCCc2ccccc21` [(108), N-(3-aminopropyl)-N′-tetrahydroquinoline malonic acid diamide], in the assay with Caenorhabditis elegans (both tests), the “efficacy in the C. elegans assay” value was “ineffectiveness”. Further, in the assay with Caenorhabditis elegans (setting [3]), the Score entry is “−”.
